How the values were obtained:
BT-549 [1] = experiment: drug sensitivity score (DSS), CellTox Green (DSS (AUC-based score)); higher = stronger drug effect (viability inhibition or cytotoxicity); extreme values may be limits of the assay; conditions: incubation time: 72 h
Outline: (§1)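 Using 20 µl of cell suspension per well, breast cancer cell lines were seeded into 384-well plates pre-loaded with compound at 5 concentrations in 10-fold steps across a compound-specific 10,000-fold range. Incubation lasted 72 h, after which CellTox Green fluorescence at 485/520 nm and then CellTiter-Glo luminescence, following 10 min at room temperature, were recorded. Each plate was normalised to 0.1 % DMSO and a positive kill control before the drug sensitivity score was derived from the area under the fitted dose-response curve.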

MDA-MB-436 [2] = experiment: as above; conditions: incubation time: 72 h
Outline: as §1

CAL-85-1 [3] = experiment: as above; conditions: incubation time: 72 h
Outline: as §1

CAL-148 [4] = experiment: as above; conditions: incubation time: 72 h
Outline: as §1

MDA-MB-468 [5] = experiment: as above; conditions: incubation time: 72 h
Outline: as §1

BT-474 = experiment: drug sensitivity score (DSS), CellTiter-Glo (DSS (AUC-based score)); higher = stronger drug effect (viability inhibition or cytotoxicity); extreme values may be limits of the assay; conditions: incubation time: 72 h
Outline: as §1

DU-4475 = experiment: as above; conditions: incubation time: 72 h
Outline: as §1

BT-549 [6] = experiment: as above; conditions: incubation time: 72 h
Outline: as §1

MFM-223 = experiment: as above; conditions: incubation time: 72 h
Outline: as §1

HCC1143 = experiment: as above; conditions: incubation time: 72 h
Outline: as §1

MDA-MB-453 = experiment: as above; conditions: incubation time: 72 h
Outline: as §1

HCC1937 = experiment: as above; conditions: incubation time: 72 h
Outline: as §1

CAL-51 = experiment: as above; conditions: incubation time: 72 h
Outline: as §1

MDA-MB-436 [7] = experiment: as above; conditions: incubation time: 72 h
Outline: as §1

Hs578T = experiment: as above; conditions: incubation time: 72 h
Outline: as §1

HCC1599 = experiment: as above; conditions: incubation time: 72 h
Outline: as §1

CAL-120 [8] = experiment: as above; conditions: incubation time: 72 h
Outline: as §1

CAL-85-1 [9] = experiment: as above; conditions: incubation time: 72 h
Outline: as §1

MCF-10A = experiment: as above; conditions: incubation time: 72 h
Outline: as §1

MDA-MB-231 = experiment: as above; conditions: incubation time: 72 h
Outline: as §1

CAL-148 [10] = experiment: as above; conditions: incubation time: 72 h
Outline: as §1

SK-BR-3 = experiment: as above; conditions: incubation time: 72 h
Outline: as §1

HDQ-P1 = experiment: as above; conditions: incubation time: 72 h
Outline: as §1

MDA-MB-468 [11] = experiment: as above; conditions: incubation time: 72 h
Outline: as §1

MDA-MB-468 [12] = conditions: 72 h
Outline: (§2)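 Breast cancer cell lines (20 µl suspension) were seeded into 384-well plates holding compound at 5 concentrations in 10-fold steps over a compound-specific 10,000-fold range, then incubated 72 h. Cell death was read first by CellTox Green fluorescence (485/520 nm), then viability by CellTiter-Glo luminescence after 10 min at room temperature. Each plate was normalised to 0.1 % DMSO and a positive kill control. EC50 was fitted from the dose-response curves and censored at the top concentration.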

CAL-120 [13] = conditions: 72 h
Outline: as §2

| Structure (SMILES) | drug sensitivity score (BT-549 [1]) | drug sensitivity score (MDA-MB-436 [2]) | drug sensitivity score (CAL-85-1 [3]) | drug sensitivity score (CAL-148 [4]) | drug sensitivity score (MDA-MB-468 [5]) | drug sensitivity score (BT-474) | drug sensitivity score (DU-4475) | drug sensitivity score (BT-549 [6]) | drug sensitivity score (MFM-223) | drug sensitivity score (HCC1143) | drug sensitivity score (MDA-MB-453) | drug sensitivity score (HCC1937) | drug sensitivity score (CAL-51) | drug sensitivity score (MDA-MB-436 [7]) | drug sensitivity score (Hs578T) | drug sensitivity score (HCC1599) | drug sensitivity score (CAL-120 [8]) | drug sensitivity score (CAL-85-1 [9]) | drug sensitivity score (MCF-10A) | drug sensitivity score (MDA-MB-231) | drug sensitivity score (CAL-148 [10]) | drug sensitivity score (SK-BR-3) | drug sensitivity score (HDQ-P1) | drug sensitivity score (MDA-MB-468 [11]) | EC50, CellTiter-Glo (MDA-MB-468 [12]) [µM] | EC50, CellTiter-Glo (CAL-120 [13]) [µM] |
| --- | --- | --- | --- | --- | --- | --- | --- | --- | --- | --- | --- | --- | --- | --- | --- | --- | --- | --- | --- | --- | --- | --- | --- | --- | --- | --- |
| CN1CCC(COc2cnc(-c3cccc(Cn4nc(-c5cccc(C#N)c5)ccc4=O)c3)nc2)CC1 | 0 | 0 | 0.655 | 0 | 0 | 0 | 0 | 0 | 0 | 0 | 0 | 0 | 0 | 1.23 | 0 | 0 | 0 | 0 | 0 | 0 | 0 | 0 | 0 | 0 |  |  |
| CN(C)C/C=C/C(=O)Nc1cc2c(Nc3ccc(F)c(Cl)c3)ncnc2cc1O[C@H]1CCOC1 [Afatinib] | 0 | 0 | 8 | 0 | 0 | 0 | 0 | 0.0448 | 0 | 0 | 4.69 | 0 | 0 | 0 | 0 | 0 | 0 | 6.39 | 17.4 | 0 | 3.9 | 17.8 | 8.44 | 2.66 | 0.158 |  |
| COc1cc(Nc2ncc3c(n2)-c2ccc(Cl)cc2C(c2c(F)cccc2OC)=NC3)ccc1C(=O)O [Alisertib] | 5.31 | 0 | 1.48 | 9.1 | 32.7 | 8.02 | 9.45 | 12.7 | 10.8 | 8.44 | 0 | 3.43 | 12.8 | 11.8 | 5.73 | 0 | 5.92 | 0 | 0 | 4.67 | 7.08 | 0 | 3.21 | 23.4 | 0.0269 | 0.338 |
| CN1CC[C@H](c2c(O)cc(O)c3c(=O)cc(-c4ccccc4Cl)oc23)[C@H](O)C1 [Alvocidib] | 2.81 | 0 | 15.3 | 0 | 0 | 16.9 | 17.3 | 17.7 | 16.1 | 14.9 | 12.8 | 13.2 | 19 | 18.8 | 16.2 | 14.7 | 14.1 | 16.3 | 16.2 | 19.1 | 11.4 | 19.8 | 16.5 | 18.1 | 0.261 | 0.167 |
| Cc1ccc(F)c(NC(=O)Nc2ccc(-c3cccc4[nH]nc(N)c34)cc2)c1 [Linifanib] | 0 | 0 | 0 | 0 | 0 | 0 | 0 | 0 | 0 | 0 | 0 | 0 | 1.94 | 0 | 0 | 0 | 0 | 0 | 0 | 0 | 0 | 0 | 0 | 0 |  |  |
| CC(=O)O[C@]1(C(C)=O)CC[C@H]2[C@@H]3C=C(C)C4=CC(=O)CC[C@]4(C)[C@H]3CC[C@@]21C [Megestrol acetate] | 0 | 0 | 0 | 0 | 0 | 0 | 0 | 0 | 0 | 0 | 0 | 0 | 0 | 0 | 0 | 0 | 0 | 0 | 0 | 0 | 0 | 0 | 0 | 0 |  |  |
| S=c1[nH]cnc2nc[nH]c12 [Mercaptopurine] | 0 | 0 | 0 | 0 | 0 | 5.51 | 4 | 0 | 0 | 0 | 0 | 8.73 | 0 | 0.565 | 6.04 | 5.32 | 4.08 | 1.24 | 0 | 7.35 | 0 | 0 | 9.67 | 0 |  | 4.71 |
| Clc1ccc(C(c2ccccc2Cl)C(Cl)Cl)cc1 (stereo not drawn) [Mitotane] | 0 | 0 | 0 | 0 | 0 | 0 | 0 | 0 | 0 | 0 | 0 | 0 | 0 | 0 | 0 | 0 | 0 | 0 | 0 | 0 | 0 | 0 | 0 | 0 |  |  |
| CCN1CCN(c2ccc(Nc3cc(N(C)C(=O)Nc4c(Cl)c(OC)cc(OC)c4Cl)ncn3)cc2)CC1 [NVP-BGJ398] | 0 | 0 | 0 | 0 | 0 | 0 | 0 | 0 | 7.35 | 0 | 0 | 0 | 0 | 0 | 0.39 | 0 | 2.55 | 0 | 0 | 0 | 0 | 0 | 0 | 0 |  | 0.252 |
| OC[C@H]1O[C@@H](n2cnc3c2N=CNC[C@H]3O)C[C@@H]1O [Pentostatin] | 0 | 0 | 0 | 0 | 0 | 0.0029 | 0 | 0 | 0 | 0 | 0 | 0 | 0 | 0 | 0 | 0 | 0 | 0 | 0 | 0 | 0 | 0 | 0 | 0 |  |  |
| C=CC[C@@H]1/C=C(\C)C[C@H](C)C[C@H](OC)[C@H]2O[C@@](O)(C(=O)C(=O)N3CCCC[C@H]3C(=O)O[C@H](/C(C)=C/[C@@H]3CC[C@@H](O)[C@H](OC)C3)[C@H](C)[C@@H](O)CC1=O)[C@H](C)C[C@@H]2OC [Tacrolimus] | 0 | 0 | 0 | 0 | 0 | 0.128 | 0 | 0 | 0 | 0 | 0 | 0 | 0 | 0 | 0 | 0 | 0 | 0 | 0 | 0 | 0 | 0 | 0 | 0 |  |  |
| O=C(c1ccc(C(=O)N2CCC(N3CCCC3)CC2)c(Nc2ccccc2)c1)N1CCC(N2CCCC2)CC1 [UNC1215] | 0 | 0 | 0 | 0 | 0 | 0 | 0 | 0 | 0 | 0 | 0 | 0 | 0 | 0 | 0 | 0 | 0 | 0 | 0 | 0 | 0 | 0 | 0 | 0 |  |  |
| C[C@]1(c2nc3c(C(N)=O)cccc3[nH]2)CCCN1 [Veliparib] | 0 | 0 | 0.454 | 2.57 | 0 | 0.587 | 0 | 0 | 0 | 0 | 0 | 0 | 3.97 | 0 | 0 | 0 | 0 | 0 | 0 | 0 | 0 | 0 | 0 | 0 |  |  |
| CS(=O)(=O)c1ccc(C(=O)Nc2ccc(Cl)c(-c3ccccn3)c2)c(Cl)c1 [Vismodegib] | 0 | 0 | 0 | 0 | 0 | 0 | 0 | 0 | 0 | 0 | 0 | 0 | 0 | 0 | 0 | 0 | 0 | 0 | 0 | 0 | 0 | 0 | 0 | 0 |  |  |

Reference: the supplement of paper PMC4862054
